Results on 27 compounds are retold here after publication PMC4339681, “2- and 3-substituted imidazo[1,2-a]pyrazines as inhibitors of bacterial type IV secretion” (Bioorganic & Medicinal Chemistry, 2014).

A value given as a limit tells only on which side of the number the result lay.

T1 sequence (Q7BK04 entry or part of it): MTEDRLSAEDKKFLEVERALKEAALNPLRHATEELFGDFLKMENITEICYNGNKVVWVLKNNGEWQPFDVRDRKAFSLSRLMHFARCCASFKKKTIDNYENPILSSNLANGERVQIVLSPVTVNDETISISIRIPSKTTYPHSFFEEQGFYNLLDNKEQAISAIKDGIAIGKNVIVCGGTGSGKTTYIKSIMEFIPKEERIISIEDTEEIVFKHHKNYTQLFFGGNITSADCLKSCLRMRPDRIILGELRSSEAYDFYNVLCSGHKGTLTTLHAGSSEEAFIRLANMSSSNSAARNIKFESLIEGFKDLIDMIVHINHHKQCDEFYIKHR

One experiment has as its target T1, VirB11 ATPase HP0525 (Helicobacter pylori, UniProt Q7BK04). The experiment is described as follows: steady-state (Michaelis–Menten / Lineweaver–Burk) kinetics, mode of inhibition. The format is biochemical. The following applies: ATP 0 to 500 μM, with and without 10 μM of compound. The method, then:
(§1) Assays for the activity of the HP0525 inhibitors were performed using a colorimetric ATPase assay (Innova Biosciences), see SI for details. The enzymatic reactions were performed in 96-well format for 30 min at 37 °C followed by measuring the absorbance at 620 nm, detecting the presence of inorganic phosphate product. […] Michaelis–Menten kinetics were performed under the same conditions as above but with various concentrations of ATP ranging from 0 to 500 μM, with and without 10 μM of compound 11. Both IC50 and Michaelis–Menten kinetics measurements were made in triplicate.
(§2) Michaelis-Menten kinetics were performed under the same conditions as above but with various concentrations of ATP ranging from 0 to 500 μM, with and without 10 μM of compound 11. Negative controls for each ATP concentration were used. GraphPad Prism version 5.0d for Mac OS X (GraphPad Software, San Diego California USA, www.graphpad.com) was used for the IC50 calculations using the Prism equation for non-linear normalized dose-response ‘Log(Inhibitor) vs. normalized response’ with Hill slope set to 1; and for Michaelis-Menten and Lineweaver-Burk analysis.
`Cc1ccc(S(=O)(=O)Nc2ccc(Nc3nccn4cc(-c5ccc6ccccc6c5)nc34)cc2)cc1` [Compound 11, 4-methyl-N-[4-[[2-(2-naphthyl)imidazo[1,2-a]pyrazine-8-yl]amino]phenyl]benzenesulfonamide]: the mode of inhibition result was “competitive inhibitor”.

The next experiment deals with T1, VirB11 ATPase HP0525. The experiment is described as follows: colorimetric in vitro ATPase assay (release of inorganic phosphate), IC50 estimation. It counts as biochemical.
Conditions: not given
How it is done:
The HP0525 protein was produced recombinantly in Escherichia coli and purified to high purity as described previously.[10] The ATPase activity of HP0525 was measured by monitoring the release of inorganic phosphate (Pi) using an in vitro ATPase assay (see Section 4 and SI). Initially, the inhibitory effects of the compounds were evaluated by performing the ATPase assay with and without compound present at concentrations of 500 μM (or 250 μM), 50 μM and 5 μM (data not shown). The compounds with inhibitory activities were further analyzed for dose-dependency by estimating their IC50s (Fig. 2).
as §1
ATPase activity measurements were carried out using a colorimetric in vitro ATPase assay kit (Innova Biosciences), using 96-well ELISA microplates (Greiner Bio-One) with reaction volumes of 100 µL in each well. Multi-pipettes with either 8 tips or 96 tips were used. Enzymatic reactions were performed for 30 min at 37 °C followed by measuring the absorbance at 620 nm, detecting the presence of inorganic phosphate product. Each reaction contained 100 mM Tris–HCl, pH 7.5; 2.5 mM MgCl2; 125 μM ATP; 5% DMSO; 25 mM NaCl; 0.5 mM DTT and 0.053 μM HP0525, with or without inhibitor. In detail, the assay can be described in steps. Step 1: 48 μL of substrate buffer mix (providing the components Tris–HCl, pH 7.5; MgCl2; ATP and DMSO) was dispensed to each well. Step 2: 2 μL of compound (solublized in DMSO) was added to corresponding well. Step 3: Enzymatic reaction was started by the addition of 50 μL of protein (in 50 mM Tris-HCl, pH 7.5; 50 mM NaCl and 1 mM DTT) to the wells. Step 4: Reaction plates were incubated at 37 degrees for 30 min. Step 5: The reaction was stopped by the addition of 25 uL of Gold mix reagent, followed by vigorous mixing. After 2-5 min, 10 uL of stabilizer solution was added to the reaction. Step 6: After an additional 30 min incubation at room temperature, the absorbance at 620 nm was measured using a microplate reader.
In the negative control, the protein was added after the Gold mix, as described in the standard protocol of the Innova Biociences ATPase assay kit. As an alternative negative control, providing equivalent readouts, 10 mM EDTA could also be added at Step 2, then removing the catalytically essential Mg ions from the active site of HP0525.
as §2
Usually IC50 stands for the midpoint of a concentration-inhibition curve. As for `Cc1ccc(S(=O)(=O)Nc2nccn3c(-c4ccccc4Oc4ccccc4)cnc23)cc1` [Compound 2], the IC50 was 96 ± 42 µM.

As for `COc1ccc(-c2cnc3c(NS(=O)(=O)c4ccc(C)cc4)nccn23)cc1OC` [Compound 3, N-[3-(3,4-dimethoxyphenyl)imidazo[1,2-a]pyrazine-8-yl]-4-methyl-benzenesulfonamide], the IC50 is 144 ± 14 µM.

As to `Cc1ccc(S(=O)(=O)Nc2nccn3c(-c4cc(C)cc(C)c4)cnc23)cc1` [Compound 4], the IC50 was 154 ± 22 µM.

For the compound `Cc1ccc(S(=O)(=O)Nc2ccc(Nc3nccn4c(-c5ccc6ccccc6c5)cnc34)cc2)cc1` [Compound 5, 4-methyl-N-[4-[3-(2-naphthyl)imidazo[1,2-a]pyrazine-8-yl]aminophenyl]benzenesulfonamide], the IC50 was 20 ± 3 µM.

`Cc1ccc(S(=O)(=O)Nc2ccc(Nc3nccn4c(-c5ccsc5)cnc34)cc2)cc1` [Compound 6, 4-methyl-N-[4-[[3-(3-thienyl)imidazo[1,2-a]pyrazine-8-yl]amino]phenyl]benzenesulfonamide]: the IC50 is 48 ± 7 µM.

With `Cc1ccc(S(=O)(=O)Nc2nccn3cc(-c4ccc5ccccc5c4)nc23)cc1` [Compound 7, 4-methyl-N-[2-(2-naphthyl)imidazo[1,2-a]pyrazine-8-yl]benzenesulfonamide], the IC50 is 88 ± 14 µM.

As to `Cc1ccc(S(=O)(=O)Nc2nccn3cc(-c4ccccc4Oc4ccccc4)nc23)cc1` [Compound 8, 4-methyl-N-[2-(2-phenoxyphenyl)imidazo[1,2-a]pyrazine-8-yl]benzenesulfonamide], the IC50 was 82 ± 14 µM.

Turning to `COc1ccc(-c2cn3ccnc(NS(=O)(=O)c4ccc(C)cc4)c3n2)cc1OC` [Compound 9, N-[2-(3,4-dimethoxylphenyl)imidazo[1,2-a]pyrazine-8-yl]-4-methyl-benzenesulfonamide], the IC50 was 167 ± 43 µM.

As for `Cc1ccc(S(=O)(=O)Nc2nccn3cc(-c4cc(C)cc(C)c4)nc23)cc1` [Compound 10, N-[2-(3,5-dimethylphenyl)imidazo[1,2-a]pyrazine-8-yl]-4-methylbenzenesulfonamide], the IC50 is 133 ± 16 µM.

As for `Cc1ccc(S(=O)(=O)Nc2ccc(Nc3nccn4cc(-c5ccc6ccccc6c5)nc34)cc2)cc1` [Compound 11, 4-methyl-N-[4-[[2-(2-naphthyl)imidazo[1,2-a]pyrazine-8-yl]amino]phenyl]benzenesulfonamide], the IC50 was 6 ± 1 µM.

For the compound `Cc1ccc(S(=O)(=O)Nc2ccc(Nc3nccn4cc(-c5ccsc5)nc34)cc2)cc1` [Compound 12, 4-methyl-N-[4-[[2-(3-thienyl)imidazo[1,2-a]pyrazine-8-yl]amino]phenyl]benzenesulfonamide], the IC50 is 99 ± 18 µM.

On to `Cc1ccc(S(=O)(=O)Nc2ccc(Nc3nccn4cc(-c5ccccc5Oc5ccccc5)nc34)cc2)cc1` [Compound 13, 4-Methyl-N-(4-(2-(2-phenoxyphenyl)imidazo[1,2-a]pyrazin-8-ylamino)phenyl)benzenesulfonamide], for which the IC50 was 18 ± 4 µM.

For the compound `Nc1nccn2cc(-c3ccc4ccccc4c3)nc12` [Compound 25, 2-(Naphthalen-2-yl)imidazo[1,2-a]pyrazin-8-amine], the IC50 is greater than 1000 µM.

On to `Nc1ccc(Nc2nccn3cc(-c4ccc5ccccc5c4)nc23)cc1` [Compound 26, N^’-(2-(Naphthalen-2-yl)imidazo[1,2-a]pyrazin-8-yl)benzene-1,4-diamine], for which the IC50 is 18 ± 5 µM.

For `CS(=O)(=O)Nc1ccc(Nc2nccn3cc(-c4ccc5ccccc5c4)nc23)cc1` [Compound 27, N-(4-(2-(Naphthalen-2-yl)imidazo[1,2-a]pyrazin-8-ylamino)phenyl)methanesulfonamide], the IC50 is 61 ± 28 µM.

Consider `Cc1ccc(S(=O)(=O)Nc2ccc(Oc3nccn4cc(-c5ccc6ccccc6c5)nc34)cc2)cc1` [Compound 28, 4-Methyl-N-(4-(2-(naphthalen-2-yl)imidazo[1,2-a]pyrazin-8-yloxy)phenyl)benzenesulfonamide], for which the IC50 is 29 ± 9 µM.

Take `Cc1ccc(S(=O)(=O)Nc2ccc(CNc3nccn4cc(-c5ccc6ccccc6c5)nc34)cc2)cc1` [Compound 29, 4-Methyl-N-(4-((2-(naphthalen-2-yl)imidazo[1,2-a]pyrazin-8-ylamino)methyl)phenyl)benzenesulfonamide]: the IC50 is 75 ± 35 µM.

On to `Cc1ccc(S(=O)(=O)NCCCNc2nccn3cc(-c4ccc5ccccc5c4)nc23)cc1` [Compound 30, 4-Methyl-N-(3-(2-(naphthalen-2-yl)imidazo[1,2-a]pyrazin-8-ylamino)propyl)benzenesulfonamide], for which the IC50 was 58 ± 38 µM.

As to `Cc1ccc(S(=O)(=O)NCCNc2nccn3cc(-c4ccc5ccccc5c4)nc23)cc1` [Compound 31, 4-Methyl-N-(2-(2-(naphthalen-2-yl)imidazo[1,2-a]pyrazin-8-ylamino)ethyl)benzenesulfonamide], the IC50 was 7 ± 2 µM.

On to `c1cncc(-c2cccc(Nc3nccn4cc(-c5ccc6ccccc6c5)nc34)c2)c1` [Compound 32, 2-(Naphthalen-2-yl)-N-(3-(pyridin-3-yl)phenyl)imidazo[1,2-a]pyrazin-8-amine], for which the IC50 was 4 ± 1 µM.

Turning to `O=S(=O)(Nc1ccc(Nc2nccn3cc(-c4ccc5ccccc5c4)nc23)cc1)c1cccc2cccnc12` [Compound 33, N-(4-((2-(Naphthalen-2-yl)imidazo[1,2-a]pyrazin-8-yl)amino)phenyl)quinoline-8-sulfonamide], the IC50 was 7 ± 2 µM.

Take `O=S(=O)(Nc1cccc(Nc2nccn3cc(-c4ccc5ccccc5c4)nc23)c1)c1cccc2cccnc12` [Compound 34, N-(3-((2-(Naphthalen-2-yl)imidazo[1,2-a]pyrazin-8-yl)amino)phenyl)quinoline-8-sulfonamide]: the half-maximal inhibitory concentration (IC50) is 7 ± 2 µM.

In the case of `Cc1ccc(S(=O)(=O)Nc2ccc(Nc3nccn4ccnc34)cc2)cc1` [Compound 35, N-(4-(Imidazo[1,2-a]pyrazin-8-ylamino)phenyl)-4-methylbenzenesulfonamide], the IC50 was greater than 1000 µM.

As to `Cc1ccc(S(=O)(=O)Nc2ccc(Nc3nccn4cc(-c5cnc6ccccc6n5)nc34)cc2)cc1` [Compound 36, 4-Methyl-N-(4-(2-(quinoxalin-2-yl)imidazo[1,2-a]pyrazin-8-ylamino)phenyl)benzenesulfonamide], the IC50 is 28 ± 6 µM.

Staying with this experiment, now noted: 125 μM ATP, 0.053 μM HP0525, 5% DMSO, pH 7.5, 30 min at 37 °C, triplicate; read-out: IC50.
On to “4-methyl-N-[2-(2-naphthyl)imidazo[1,2-a]pyrazine-8-yl]benzenesulfonamide [Compound 1]”, for which the 50% inhibitory concentration (IC50) was 77 ± 16 µM.

Turning to “N-(2-((6-Bromo-2-(naphthalen-2-yl)imidazo[1,2-a]pyrazin-8-yl)amino)ethyl)-4- methylbenzenesulfonamide [Compound 38]”, the IC50 is 77 ± 20 µM.

As for “N-(4-((6-Bromo-2-(naphthalen-2-yl)imidazo[1,2-a]pyrazin-8-yl)amino)phenyl)-4- methylbenzenesulfonamide [Compound 37]”, the IC50 is 6 ± 2 µM.

The same experiment, now with this note: ATPase assay.
As to `Nc1nccn2cc(-c3ccc4ccccc4c3)nc12` [Compound 25, 2-(Naphthalen-2-yl)imidazo[1,2-a]pyrazin-8-amine], the “inhibitory activity in words” value is “complete loss of activity”.

Take `Cc1ccc(S(=O)(=O)Nc2ccc(Nc3nccn4ccnc34)cc2)cc1` [Compound 35, N-(4-(Imidazo[1,2-a]pyrazin-8-ylamino)phenyl)-4-methylbenzenesulfonamide]: the “inhibitory activity in words” value was “complete loss of activity”.
